Tests used:
[1] = target: T1, VEGF-R2 (Rattus norvegicus, UniProt O08775); assay: VEGF-R2 Screening Assay; format: biochemical; details: 33P-γ-ATP incorporation, 10 μM ATP
T1 construct: polyhistidine (N)
Description: Then 1 μL of test compound stock in 100% DMSO was added to the wells resulting in a final concentration of 1% DMSO in the reaction with a 100 μL final reaction volume. The CDK1:Cyclin-B protein was then diluted in 50 mM Tris-HCl pH=8.0, 0.1% BSA at a concentration of 1 ng per μL and 30 μL (30 ng enzyme per test well) was added to each well to initiate the reaction. The reaction was incubated for one hour at 30° C. At the end of the 1 h incubation, the reaction was terminated by aspirating the mixture from the plate and washing the wells twice with PBS containing 100 mM EDTA. The histone-H1 biotinylated peptide substrate became immobilized on the Flashplate™ and the incorporation of ^33P-γ-ATP was measured by reading the plate on a scintillation counter. Inhibition of the enzymatic activity of CDK1 was measured by observing a reduced amount of ^33P-γ-ATP incorporated into the immobilized peptide. The VEGF-R kinase assay was carried out using the CDK kinase assay procedure except that the enzyme was replaced with the VEGF-R2 fusion protein containing a polyhistidine tag at the N-terminus followed by amino acids 786-1343 of the rat VEGF-R2 kinase domain (GenBank Accession #U93306).

[2] = target: T2, CDK1:Cyclin-B (Homo sapiens, UniProt P06493); assay: CDK1 Screening Assay; format: biochemical; details: 33P-γ-ATP incorporation, 10 μM ATP
T2 construct: purchased New England Biolabs, Beverly, Mass; 6020; host or cells: insect cells
Description: (§1) A kinase reaction mixture was prepared containing 50 mM Tris-HCl pH=8, 10 mM MgCl2, 0.1 mM […], 1 mM DTT, 10 μM ATP, 0.025 μM biotinylated histone-HI peptide substrate and […] per well ^33P-γ-ATP (2000-3000 Ci/mmol). 70 μL of the kinase reaction mixture was dispensed into the well of a streptavidin coated FlashPlate™ (Cat. # SMP103, NEN, Boston, Mass.). Then 1 μL of test compound stock in 100% DMSO was added to the wells resulting in a final concentration of 1% DMSO in the reaction with a 100 μL final reaction volume.
(§2) The CDK1:Cyclin-B protein was then diluted in 50 mM Tris-HCl pH=8.0, 0.1% BSA at a concentration of 1 ng per μL and 30 μL (30 ng enzyme per test well) was added to each well to initiate the reaction. The reaction was incubated for one hour at 30° C. At the end of the 1 h incubation, the reaction was terminated by aspirating the mixture from the plate and washing the wells twice with PBS containing 100 mM EDTA. The histone-H1 biotinylated peptide substrate became immobilized on the Flashplate™ and the incorporation of ^33P-γ-ATP was measured by reading the plate on a scintillation counter. Inhibition of the enzymatic activity of CDK1 was measured by observing a reduced amount of ^33P-γ-ATP incorporated into the immobilized peptide.
The CDK1 used was isolated from insect cells expressing both the human CDK1 catalytic subunit and its positive regulatory subunit cyclin B (New England Biolabs, Beverly, Mass., Cat. #6020).
(§3) • VEGF-R2, HER2 and (Biotin)[…]-Amide • RET kinases • CDK1 (Biotin)[…]-Amide • Aurora-A kinase Biotin-[…]-Amide

[3] = tested on: A375 malignant melanoma; assay: Inhibition of cell proliferation (14C-thymidine incorporation), A375; format: cell-based, human; details: Homo sapiens, A-375
Description: (§4) The ability of a test compound to inhibit the proliferation of cell growth was determined by measuring incorporation of ^14C-labelled thymidine into newly synthesized DNA within the cells. This method was used on cell lines derived from carcinomas originating from several tissues such as HeLa cervical adenocarcinoma (American Type Culture Collection (ATCC), Virginia, Cat. #CCL-2), A375 malignant melanoma (ATCC CRL-1619), HCT-116 colon carcinoma (CCL-247). In this way the effect of a compound on cell growth of cells with many different phenotypes can be determined. Cells were trypsinized and counted and 3000-8000 cells were added to each well of a 96-well CytoStar tissue culture treated scintillating microplate (Amersham #RPNQ0160) in complete medium in a volume of 100 μL. Cells were incubated for 24 hours in complete medium at 37° C. in an atmosphere containing 5% CO2.
(§5) Next, 1 μL of test compound in 100% DMSO was added to the wells of the plate. DMSO only was added to control wells. Cells were incubated for 24 more hours in complete medium at 37° C. in an atmosphere containing 5% CO2. Methyl ^14C-thymidine 56 mCi/mmol (NEN #NEC568 or Amersham #CFA532) was diluted in complete medium and 0.2 uCi/well was added to each well of the CytoStar plate in a volume of 20 μl. The plate was incubated for 24 hours at 37° C. plus 5% CO2 in drug plus ^14C-thymidine. The contents of the plate discarded into a ^14C radioactive waste container by inverting the plate and the plate was washed twice with 200 μL PBS.
(§6) 200 μL of PBS is added to each well. The top of the plate was sealed with a transparent plate sealer and a white plate backing sealer (Packard #6005199) was applied to the bottom of the plate. The degree of methyl ^14C-thymidine incorporation was quantified on a Packard Top Count.

[4] = target: T3, Aurora-A (Mus musculus, UniProt P97477); assay: Aurora-A Screening Assay; format: biochemical, murine; details: 33P-γ-ATP incorporation, 10 μM ATP
T3 construct: made in house; host or cells: sf9 insect cells
T3 sequence (P97477 1-395): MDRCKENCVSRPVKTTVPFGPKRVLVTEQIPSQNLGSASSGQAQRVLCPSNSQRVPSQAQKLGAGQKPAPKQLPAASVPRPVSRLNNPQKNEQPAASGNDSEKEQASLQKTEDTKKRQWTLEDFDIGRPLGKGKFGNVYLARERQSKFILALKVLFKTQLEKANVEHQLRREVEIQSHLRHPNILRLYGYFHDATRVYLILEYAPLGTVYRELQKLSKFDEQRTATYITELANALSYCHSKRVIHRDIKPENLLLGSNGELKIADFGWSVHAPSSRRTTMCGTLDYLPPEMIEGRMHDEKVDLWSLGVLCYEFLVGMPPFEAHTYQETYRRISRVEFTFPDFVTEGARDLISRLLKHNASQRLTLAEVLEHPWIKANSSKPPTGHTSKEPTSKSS
Description: as §1, §2
The Aurora-A kinase assay was carried out using the CDK kinase assay procedure except that the enzyme was replaced with the full length protein encoding the murine Aurora-A (Accession# GB BC014711) expressed and purified from sf9 insect cells.
as §3

[5] = tested on: HCT-116 colon carcinoma; assay: Inhibition of cell proliferation (14C-thymidine incorporation), HCT-116; format: cell-based; details: Homo sapiens, HCT-116, HCT116
Description: as §4, §5, §6

[6] = tested on: HeLa cervical adenocarcinoma; assay: Inhibition of cell proliferation (14C-thymidine incorporation), HeLa; format: cell-based; details: Homo sapiens;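 note: HeLa cells in 96-well scintillating plates, compound for 24 h then 24 h more with 14C-thymidine, counting label built into new DNA against DMSO-only control wells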

T2 sequence (P06493 whole entry): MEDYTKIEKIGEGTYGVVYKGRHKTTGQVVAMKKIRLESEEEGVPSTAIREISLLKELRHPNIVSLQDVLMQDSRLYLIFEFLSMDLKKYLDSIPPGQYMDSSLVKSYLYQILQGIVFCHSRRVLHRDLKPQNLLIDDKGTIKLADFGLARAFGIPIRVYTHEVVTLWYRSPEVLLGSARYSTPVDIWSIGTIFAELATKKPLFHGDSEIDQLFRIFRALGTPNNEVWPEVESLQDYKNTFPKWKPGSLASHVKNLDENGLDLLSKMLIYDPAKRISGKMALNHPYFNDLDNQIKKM
T2 sequence (P14635 whole entry partner): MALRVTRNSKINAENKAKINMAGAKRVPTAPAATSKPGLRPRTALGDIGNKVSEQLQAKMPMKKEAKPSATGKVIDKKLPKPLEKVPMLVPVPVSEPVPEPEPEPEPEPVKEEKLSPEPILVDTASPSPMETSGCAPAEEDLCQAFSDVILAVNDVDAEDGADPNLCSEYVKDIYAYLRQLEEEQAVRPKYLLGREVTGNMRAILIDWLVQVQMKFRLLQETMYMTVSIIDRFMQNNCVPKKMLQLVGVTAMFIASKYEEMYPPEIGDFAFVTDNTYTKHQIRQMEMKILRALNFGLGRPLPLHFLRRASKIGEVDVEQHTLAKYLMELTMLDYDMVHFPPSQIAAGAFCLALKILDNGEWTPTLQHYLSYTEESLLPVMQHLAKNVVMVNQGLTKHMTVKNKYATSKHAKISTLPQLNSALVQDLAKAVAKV
T1 sequence (O08775 786-1343): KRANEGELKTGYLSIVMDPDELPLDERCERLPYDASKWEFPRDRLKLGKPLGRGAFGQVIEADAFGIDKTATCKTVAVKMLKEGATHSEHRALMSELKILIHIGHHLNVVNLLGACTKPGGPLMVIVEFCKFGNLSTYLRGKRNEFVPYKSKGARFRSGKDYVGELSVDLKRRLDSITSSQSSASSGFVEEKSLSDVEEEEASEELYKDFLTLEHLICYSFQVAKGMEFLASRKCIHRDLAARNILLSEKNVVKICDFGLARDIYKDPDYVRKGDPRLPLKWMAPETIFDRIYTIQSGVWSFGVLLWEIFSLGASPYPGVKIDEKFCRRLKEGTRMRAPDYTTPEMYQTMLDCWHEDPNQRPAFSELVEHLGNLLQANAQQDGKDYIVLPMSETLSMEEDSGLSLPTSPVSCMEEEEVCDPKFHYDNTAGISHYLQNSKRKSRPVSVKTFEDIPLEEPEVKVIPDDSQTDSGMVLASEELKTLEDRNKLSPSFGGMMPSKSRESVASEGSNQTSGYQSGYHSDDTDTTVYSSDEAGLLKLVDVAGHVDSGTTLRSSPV

| SMILES | IC50 [1] | IC50 [2] | IC50 [3] | IC50 [4] | IC50 [5] | IC50 [6] |
| --- | --- | --- | --- | --- | --- | --- |
| c1cnc2[nH]cc(-c3ccnc(NC4CCCC4)n3)c2c1 [Cpd 14, Cyclopentyl-[4-(1H-pyrrolo[2,3-b]pyridin-3-yl)-pyrimidin-2-yl]-amine] | 2.23 µM | 0.088 µM | 93 nM | 0.885 µM | 0.078 µM | 0.059 µM |
| c1cnc2[nH]cc(-c3ccnc(NC4CCCCCC4)n3)c2c1 [Cpd 15, Cycloheptyl-[4-(1H-pyrrolo[2,3-b]pyridin-3-yl)-pyrimidin-2-yl]-amine] | 2.11 µM | 0.012 µM | 4.67 nM | 0.166 µM | 0.00756 µM | 0.0082 µM |
| c1cnc2[nH]cc(-c3ccnc(NCC4CCCCC4)n3)c2c1 [Cpd 16, Cyclohexylmethyl-[4-(1H-pyrrolo[2,3-b]pyridin-3-yl)-pyrimidin-2-yl]-amine] | 10 µM | 0.151 µM | 604 nM | 0.636 µM | 0.41 µM | 0.368 µM |
| O[C@H]1CC[C@H](Nc2nccc(-c3c[nH]c4ncccc34)n2)CC1 [Cpd 18, trans-4-[4-(1H-Pyrrolo[2,3-b]pyridin-3-yl)-pyrimidin-2-ylamino]-cyclohexanol] | 1.79 µM | 0.0076 µM | 1.77 nM | 0.335 µM | 0.00225 µM | 0.00161 µM |
| COc1ccc(Nc2nccc(-c3c[nH]c4ncccc34)n2)c(C)c1 [Cpd 27, (4-Methoxy-2-methylphenyl)-[4-(1H-pyrrolo[2,3-b]pyridin-3-yl)-pyrimidin-2-yl]-amine] | 1 µM | 0.002 µM | 4.5 nM | 0.357 µM | 0.00639 µM | 0.0072 µM |
| Brc1ccccc1Nc1nccc(-c2c[nH]c3ncccc23)n1 [Cpd 28, (2-Bromophenyl)-[4-(1H-pyrrolo[2,3-b]pyridin-3-yl)-pyrimidin-2-yl]-amine] | 1 µM | 0.0127 µM | 67.6 nM | 0.175 µM | 0.118 µM | 0.0952 µM |
| FC(F)(F)c1ccccc1Nc1nccc(-c2c[nH]c3ncccc23)n1 [Cpd 29, (2-trifluoromethylphenyl)-[4-(1H-pyrrolo[2,3-b]pyridin-3-yl)-pyrimidin-2-yl]-amine] | 1.97 µM | 0.056 µM | 403 nM | 1 µM | 0.381 µM | 0.392 µM |
| Oc1ccccc1Nc1nccc(-c2c[nH]c3ncccc23)n1 [Cpd 30, (2-Hydroxyphenyl)-[4-(1H-pyrrolo[2,3-b]pyridin-3-yl)-pyrimidin-2-yl]-amine] | 0.049 µM | 0.139 µM | 1650 nM | 0.289 µM | 0.652 µM | 0.956 µM |
| Fc1ccccc1Nc1nccc(-c2c[nH]c3ncccc23)n1 [Cpd 31, (2-Fluorophenyl)-[4-(1H-pyrrolo[2,3-b]pyridin-3-yl)-pyrimidin-2-yl]-amine] | 1 µM | 0.046 µM | 110 nM | 0.1 µM | 0.105 µM | 0.0992 µM |
| CCc1ccccc1Nc1nccc(-c2c[nH]c3ncccc23)n1 [Cpd 32, (2-Ethylphenyl)-[4-(1H-pyrrolo[2,3-b]pyridin-3-yl)-pyrimidin-2-yl]-amine] | 1.47 µM | 0.068 µM | 217 nM | 0.396 µM | 0.254 µM | 0.292 µM |
| Cc1cc(CCN(C)C)ccc1Nc1nccc(-c2c[nH]c3ncccc23)n1 [Cpd 46] | 0.341 µM | 0.0016 µM | 0.634 nM | 0.466 µM | 0.000545 µM | 0.000963 µM |
| Cc1cc(CCN2CCN(C)CC2)ccc1Nc1nccc(-c2c[nH]c3ncccc23)n1 [Cpd 51, {4-[2-(4-Methylpiperizin-1-yl)ethyl]-2-methylphenyl}-[4(1H-pyrrolo[2,3-b]pyridin-3-yl)-pyrimidin-2-yl]-amine] | 1.25 µM | 0.0026 µM | 3.52 nM | 0.895 µM | 0.00361 µM | 0.00466 µM |

Continued, values first:

| IC50 [1] | IC50 [2] | IC50 [3] | IC50 [4] | IC50 [5] | IC50 [6] | SMILES |
| --- | --- | --- | --- | --- | --- | --- |
| 1.14 µM | 0.001 µM | 0.0467 nM | 0.408 µM | 0.000542 µM | 0.000993 µM | Cc1ccc(Nc2nccc(-c3c[nH]c4ncccc34)n2)c(C)c1 [Cpd 33, (2,4-Dimethylphenyl)-[4-(1H-pyrrolo[2,3-b]pyridin-3-yl)-pyrimidin-2-yl]-amine] |
| 0.618 µM | 0.004 µM | 15.7 nM | 0.238 µM | 0.00137 µM | 0.0114 µM | Cc1cccc(Nc2nccc(-c3c[nH]c4ncccc34)n2)c1C [Cpd 34, (2,3-Dimethylphenyl)-[4-(1H-pyrrolo[2,3-b]pyridin-3-yl)-pyrimidin-2-yl]-amine] |
| 1.66 µM | 0.168 µM | 862 nM | 0.735 µM | 0.242 µM | 0.384 µM | Oc1ccc(Nc2nccc(-c3c[nH]c4ncccc34)n2)cc1 [Cpd 39, (4-Hydroxyphenyl)-[4-(1H-pyrrolo[2,3-b]pyridin-3-yl)-pyrimidin-2-yl]-amine] |
| 1.64 µM | 0.0063 µM | 42 nM | 0.182 µM | 0.0132 µM | 0.0101 µM | Cc1cc(Br)ccc1Nc1nccc(-c2c[nH]c3ncccc23)n1 [Cpd 41, (4-Bromo-2-methylphenyl)-[4-(1H-pyrrolo[2,3-b]pyridin-3-yl)-pyrimidin-2-yl]-amine] |
| 7.88 µM | 0.002 µM | 0.743 nM | 0.917 µM | 0.000353 µM | 0.00112 µM | N[C@H]1CC[C@H](Nc2nccc(-c3c[nH]c4ncccc34)n2)CC1 [Cpd 42, trans-N-[4-(1H-Pyrrolo[2,3-b]pyridin-3-yl)-pyrimidin-2-yl]-cyclohexane-1,4-diamine] |

Source: US7855205B2, “Pyrimidinyl substituted fused-pyrrolyl compounds useful in treating kinase disorders” (Janssen Pharmaceutica NV, priority 2004, dated 2010)
